In paper PMC10120551, “Novel Glu-based pyrazolo[3,4-d]pyrimidine analogues: design, synthesis and biological evaluation as DHFR and TS dual inhibitors” (Journal of Enzyme Inhibition and Medicinal Chemistry, 2023):

Columns and labels:
HOP-92 = experiment: cells; conditions: Homo sapiens
OVCAR-4 = conditions: OVCAR-4, Ovarian cancer; five-dose 0.01–100 µM
U251 = conditions: U251, CNS cancer; five-dose 0.01–100 µM
K-562 = experiment: cells; conditions: Homo sapiens
A498 = conditions: A498, Renal cancer; five-dose 0.01–100 µM
SNB-19 [1] = experiment: cells; conditions: Homo sapiens
MCF-7 cells = experiment: Cell cycle analysis (PI, flow cytometry); format: cell-based, human; conditions: MCF-7, 10 µM, 48 h; DMSO control 24.95%
Protocol: Figure 5. Flow cytometric analyses: cell cycle distribution analysis using PI staining method in which MCF-7 cells were treated by 6i (10 µM) and DMSO (negative control; NC) for 48 h; (A) 6i, (B) DMSO, (C) cells percentage in different phases (G0-G1, S, G2/M); apoptotic induction using annexin-V-FITC/PI staining method in which cancer cells were treated by 6i (10 µM) and DMSO (negative control; NC) for 24 h; (D) 6i, (E) DMSO, (F) histogram for induction of apoptosis.
The cell cycle assay was carried out according to the previously reported[36]^,[37]. Briefly, in a six-well plate, 2 ml of MCF-7 cells were seeded per well and incubated overnight at 37 °C and CO2 (5%). After 12 h incubation with serum-free medium, they were treated with 10 μM of 6i, incubated for 48 h, then washed twice with 1× PBS, trypsinised and centrifuged for 5 min (500 xg) at 4 °C. And then the cell pellet, in ice-cold 1× PBS, was fixed with absolute ethanol at −20 °C for 2 h, washed with 1× PBS ice-cold solution and finally stained with propidium iodide (PI)/RNase (Abcam, ab139418) for 0.5 h at 25 °C in the dark. flow cytometry determined the DNA content in cell phases using BD FACS Calibur[36]^,[37].

SF-539 = conditions: SF-539, CNS cancer; five-dose 0.01–100 µM
MOLT-4 = experiment: cells; conditions: Homo sapiens
OVCAR-5 = conditions: OVCAR-5, Ovarian cancer; five-dose 0.01–100 µM
recombinant hDHFR = recombinant hDHFR (Homo sapiens, UniProt P00374); experiment: DHFR inhibitory assay
Protocol: DHFR inhibition assay kit (BioVision, K247–100) supplied with recombinant hDHFR was utilised in this assay. The assay was performed as instructed in assay kit[32]. Briefly, in a 96-well clear plate, serial dilutions of the test compound (2 μL) were loaded. […] An assay buffer (100 µl) was used as a Background Control. Then, 40 μL of diluted NADPH in assay buffer (40-fold dilution) was added and mixed well. At 25 °C in the dark, the plate was incubated for 15 min. […] Instantaneously, the absorbance was read at 340 nm for 10–20 min at 25 °C in kinetic mode by Robonik ELISA plate reader. Finally, the activity and relative inhibition percentages were measured using the equations indicated in the assay kit[33–35].

EKVX = experiment: cells; conditions: Homo sapiens
HS 578 T = conditions: Breast cancer, five-dose 0.01–100 µM
OVCAR-3 = conditions: OVCAR-3, Ovarian cancer; five-dose 0.01–100 µM
KM12 = conditions: KM12, Colon cancer; five-dose 0.01–100 µM
SNB-19 [2] = conditions: SNB-19, CNS cancer; five-dose 0.01–100 µM
DU-145 = experiment: cells; conditions: Homo sapiens
HCC-2998 [3] = conditions: HCC-2998, Colon cancer; five-dose 0.01–100 µM
SNB-75 = experiment: cells; conditions: Homo sapiens
HCT-116 = experiment: cells; conditions: Homo sapiens
MALME-3M = experiment: cells; conditions: Homo sapiens
CAKI-1 = conditions: CAKI-1, Renal cancer; five-dose 0.01–100 µM
COLO 205 = conditions: COLO 205, Colon cancer; five-dose 0.01–100 µM
CCRF-CEM = conditions: Leukaemia, five-dose 0.01–100 µM
MDA-MB-468 = experiment: cells; conditions: Homo sapiens
M14 = conditions: M14, Melanoma; five-dose 0.01–100 µM
SF-268 = conditions: SF-268, CNS cancer; five-dose 0.01–100 µM
A549/ATCC = experiment: cells; conditions: Homo sapiens
UO-31 = conditions: UO-31, Renal cancer; five-dose 0.01–100 µM
PC-3 = conditions: PC-3, Prostate cancer; five-dose 0.01–100 µM
SF-295 = conditions: SF-295, CNS cancer; five-dose 0.01–100 µM
HCC-2998 [4] = experiment: cells; conditions: Homo sapiens

Chain of recombinant hDHFR (P00374 whole entry): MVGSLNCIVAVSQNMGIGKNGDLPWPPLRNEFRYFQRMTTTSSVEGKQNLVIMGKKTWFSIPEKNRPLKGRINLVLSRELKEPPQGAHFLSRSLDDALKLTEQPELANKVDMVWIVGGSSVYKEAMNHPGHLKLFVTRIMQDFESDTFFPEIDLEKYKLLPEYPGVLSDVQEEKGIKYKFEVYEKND

Compound: CCOC(=O)CC[C@H](NC(=O)c1ccc(NC(=O)Cn2cnc3c(c(C)nn3-c3ccc(Br)cc3)c2=O)cc1)C(=O)OCC [Compound 6i]
- GI50 (HOP-92; HOP-92): 6.01 µM
- CC50 (HOP-92; HOP-92, read-out: LC50): 66.2 µM
- TGI (OVCAR-4): 32.1 µM
- TGI (U251): >100 µM
- GI50 (K-562; K562): > 100 µM
- CC50 (K-562; K562, read-out: LC50): > 100 µM
- TGI (A498): 48.1 µM
- GI50 (SNB-19 [1]; SNB-19): 12.1 µM
- CC50 (SNB-19 [1]; SNB-19, read-out: LC50): 61.3 µM
- percentage of S-phase cells (MCF-7 cells): 36.29%
- TGI (SF-539): 33.0 µM
- GI50 (MOLT-4; MOLT-4): > 100 µM
- CC50 (MOLT-4; MOLT-4, read-out: LC50): > 100 µM
- TGI (OVCAR-5): 56.3 µM
- IC50 (recombinant hDHFR): 2.41 ± 0.13 µM
- GI50 (EKVX): 10.4 µM
- CC50 (EKVX; read-out: LC50): 71.7 µM
- TGI (HS 578 T): 45.7 µM
- TGI (OVCAR-3): 61.3 µM
- TGI (KM12): >100 µM
- TGI (SNB-19 [2]): 27.3 µM
- GI50 (DU-145; DU-145): 7.47 µM
- CC50 (DU-145; DU-145, read-out: LC50): > 100 µM
- TGI (HCC-2998 [3]): >100 µM
- GI50 (SNB-75; SNB-75): 14.9 µM
- CC50 (SNB-75; SNB-75, read-out: LC50): > 100 µM
- GI50 (HCT-116; HCT-116): 9.85 µM
- CC50 (HCT-116; HCT-116, read-out: LC50): > 100 µM
- GI50 (MALME-3M): 15 µM
- CC50 (MALME-3M; read-out: LC50): 59.4 µM
- TGI (CAKI-1): 22.1 µM
- TGI (COLO 205): 36.7 µM
- TGI (CCRF-CEM): >100 µM
- GI50 (MDA-MB-468; MDA-MB-468): 13.5 µM
- CC50 (MDA-MB-468; MDA-MB-468, read-out: LC50): > 100 µM
- TGI (M14): >100 µM
- TGI (SF-268): 32.8 µM
- GI50 (A549/ATCC; A549): 9.81 µM
- CC50 (A549/ATCC; A549, read-out: LC50): > 100 µM
- TGI (UO-31): 55.9 µM
- TGI (PC-3): 19.4 µM
- TGI (SF-295): 31.9 µM
- GI50 (HCC-2998 [4]; HCC 2998): 35.1 µM
- CC50 (HCC-2998 [4]; HCC 2998, read-out: LC50): > 100 µM
